pIC50: −log10 of the molar value. Converted amounts (≈) assume the structure as drawn.
Columns and labels:
in vitro [1] = settings: PAMPA
Description: Effective permeability of compound by PAMPA assay

in vitro [2] = settings: human, liver microsomes
Description: Metabolic stability in human liver microsomes assessed as intrinsic clearance at 0.5 uM incubated for 30 mins by LC-MS/MS analysis

Macrophage = assay: cells; settings: Mus musculus, 72 h
Description: (§1) Cytotoxicity against mouse peritoneal Macrophage cells assessed as reduction in cell viability incubated for 3 days by fluorimetry

in vitro [3] = settings: human, MRC5 SV2 cells
Description: Selectivity index, ratio of IC50 for human MRC5 SV2 cells to IC50 for Trypanosoma brucei Squib 427

Trypanosoma brucei = assay: microbe, parasite or virus in culture; settings: Squib 427, 72 h
Description: Antitrypanosomal activity against Trypanosoma brucei Squib 427 assessed as reduction in parasite growth incubated for 72 hrs by resazurin dye based fluorimetric analysis

Trypanosoma cruzi = assay: microbe, parasite or virus in culture; settings: Tulahuen CL2, MRC-5 SV2, 168 h
Description: Antitrypanosomal activity against Trypanosoma cruzi Tulahuen CL2 amastigotes infected in human MRC5 SV2 cells incubated for 7 days by chlorophenol red beta-D-galactopyranoside substrate based spectrophotometric assay

in vitro [4] = settings: human, MRC5 SV2 cells; remark: listed apart in the source
Description: (§2) Cytotoxicity against human MRC5 SV2 cells assessed as reduction in cell viability incubated for 3 days by fluorimetry

in vitro [5] = settings: human, MRC5 SV2 cells; remark: listed apart in the source
Description: Selectivity index, ratio of IC50 for human MRC5 SV2 cells to IC50 for Trypanosoma brucei rhodesiense STIB900 trypomastigotes

cells = settings: Homo sapiens, MRC-5 SV2, 72 h
Description: as §2

in vitro [6] = settings: mouse, liver microsomes
Description: Metabolic stability in mouse liver microsomes assessed as intrinsic clearance at 0.5 uM incubated for 30 mins by LC-MS/MS analysis

[7] = system: Trypanosoma brucei rhodesiense; assay: microbe, parasite or virus in culture; settings: STIB900, 72 h
Description: Antiprotozoal activity against Trypanosoma brucei rhodesiense STIB900 trypomastigotes incubated for 72 hrs by resazurin dye based fluorimetric analysis

Leishmania infantum = assay: microbe, parasite or virus in culture; settings: for pIC50: MHOM/MA(BE)/67/ITMAP263, 120 h; for IC90: MHOM/MA(BE)/67/ITMAP263, in Mus musculus, 120 h
Description: Antileishmanial activity against amastigote stage of Leishmania infantum MHOM/MA(BE)/67/ITMAP263 infected in mouse peritoneal macrophage assessed as parasite growth inhibition incubated for 5 days by Giemsa staining based assay

in vitro [8] = settings: mouse, peritoneal macrophages
Description: as §1

physchem [9] = settings: buffer, pH 7.4
Description: Lipophilicity, logD of compound at pH 7.4 by HPLC analysis

physchem [10] = settings: PBS buffer, pH 2
Description: Kinetic solubility of compound in PBS buffer at pH 2

in vitro [11] = settings: dog, MDCK
Description: Apparent permeability across basolateral to apical side in MDCK cells

physchem [12] = settings: PBS buffer, pH 7.4
Description: Kinetic solubility of compound in PBS buffer at pH 7.4

in vitro [13] = settings: dog, MDCK; remark: listed apart in the source
in vitro [14] = settings: human, MRC5 SV2 cells; remark: listed apart in the source
Description: Selectivity index, ratio of IC50 for human MRC5 SV2 cells to IC50 for Trypanosoma cruzi Tulahuen CL2 amastigotes infected in human MRC5 SV2 cells

in vitro [15] = settings: mouse, peritoneal macrophages; remark: listed apart in the source
Description: Selectivity index, ratio of IC50 for mouse peritoneal macrophage to IC50 for Leishmania infantum MHOM/MA(BE)/67/ITMAP263 infected in mouse peritoneal macrophage

in vitro [16] = settings: mouse, liver microsomes; remark: listed apart in the source
Description: Metabolic stability in mouse liver microsomes assessed as fraction unbound at 0.5 uM incubated for 30 mins by LC-MS/MS analysis

SMILES	Papp (in vitro [1]) [×10⁻⁶ cm/s]	CLint scaled at 0.5 h, 0.5 µM (in vitro [2]) [mL/min/kg]	microsomal CLint at 0.5 h, 0.5 µM (in vitro [2]) [µL/min/mg]	pIC50 (Trypanosoma brucei)	IC90 (Trypanosoma brucei) [µM]	IC90 at 72 h (in vitro [4]) [µM]	CLint scaled at 0.5 h, 0.5 µM (in vitro [6]) [mL/min/kg]	microsomal CLint at 0.5 h, 0.5 µM (in vitro [6]) [µL/min/mg]	pIC50 [7]	IC90 [7] [µM]	pIC50 (Leishmania infantum)	IC90 (Leishmania infantum) [µM]	IC90 at 72 h (in vitro [8]) [µM]	logD (physchem [9])	pIC50 (Macrophage)	selectivity ratio (in vitro [3])	pIC50 (Trypanosoma cruzi)	IC90 (Trypanosoma cruzi) [µM]	selectivity ratio (in vitro [5])	pIC50 (cells)	other results
CN(C(=O)c1ccccc1)c1cccc(-c2cc3ncccc3[nH]2)c1	2.78	83.7	50.6	4.50	59.1	60.9	5840	1200	5.04	35.5	4.43	60.5	59.7	3.3	4.34	0.849	5.14	64	2.89	4.58	fraction unbound at 0.5 h, 0.5 µM (in vitro [16]): 0.653; selectivity ratio (in vitro [14]): 3.59; selectivity ratio (in vitro [15]): 0.707
O=C(c1ccc(F)cc1)N1CCCC(c2cc3ncc(Cl)cc3[nH]2)C1 (stereo not drawn)	10.6	62.2	44.6	4.79	32.4	64	970	235	5.23	13.9	4.73	50.4	64	3.82	4.19	2.16	4.54	59.5	5.94	4.46	fraction unbound at 0.5 h, 0.5 µM (in vitro [16]): 0.775; selectivity ratio (in vitro [14]): 1.2; selectivity ratio (in vitro [15]): 1.9
O=C(c1cc(C(F)(F)F)no1)N1CCCC(c2cc3nc(NCc4ccccc4)ccc3[nH]2)C1 (stereo not drawn)	0.239	1870	149	5.10	14.8	13.6	–	–	5.30	13	5.20	23.6	29.9	4.4	4.65	0.894	5.67	64	1.4	5.16	fraction unbound at 0.5 h, 0.5 µM (in vitro [16]): 0.0857; selectivity ratio (in vitro [14]): 3.23; selectivity ratio (in vitro [15]): 1.07

Now from value to compound, other results behind:

Papp (in vitro [1]) [×10⁻⁶ cm/s]	CLint scaled at 0.5 h, 0.5 µM (in vitro [2]) [mL/min/kg]	microsomal CLint at 0.5 h, 0.5 µM (in vitro [2]) [µL/min/mg]	pIC50 (Trypanosoma brucei)	IC90 (Trypanosoma brucei) [µM]	IC90 at 72 h (in vitro [4]) [µM]	CLint scaled at 0.5 h, 0.5 µM (in vitro [6]) [mL/min/kg]	microsomal CLint at 0.5 h, 0.5 µM (in vitro [6]) [µL/min/mg]	pIC50 [7]	IC90 [7] [µM]	pIC50 (Leishmania infantum)	IC90 (Leishmania infantum) [µM]	IC90 at 72 h (in vitro [8]) [µM]	logD (physchem [9])	SMILES	pIC50 (Macrophage)	selectivity ratio (in vitro [3])	pIC50 (Trypanosoma cruzi)	IC90 (Trypanosoma cruzi) [µM]	selectivity ratio (in vitro [5])	pIC50 (cells)	other results
23.6	> 61.7	56.9	4.32	64	64	> 772	242	5.11	14.5	4.19	64	64	3.18	O=C(c1ccccc1)N1CCCC(c2cn3nc(Cl)ccc3n2)C1 (stereo not drawn)	4.19	1.37	4.19	64	8.19	4.19	–
1.54	119	23 to 59.2	4.41 to 4.44	58.8 to 63.5	64	2650	398 to 446	4.81 to 5.10	36.4 to 49.5	4.38 to 4.55	–	64	3.23	CC(C)c1cc(C(=O)N2CC=C(c3cc4ncccc4[nH]3)CC2)on1	4.19	1.74	5.67 to 5.70	3.79 to 15.4	4.14 to 8.02	4.19	solubility kinetic (physchem [10]): > 67.3 µg/mL; Papp B→A (in vitro [11]): 15.3 ×10⁻⁶ cm/s; solubility kinetic (physchem [12]): 10.4 µg/mL (≈ 31 µM); Papp A→B (in vitro [13]): 14.6 ×10⁻⁶ cm/s; selectivity ratio (in vitro [14]): 30.1 to 31.8; selectivity ratio (in vitro [15]): 2.32
–	67.8	37	4.26 to 4.49	32 to 64	64	1600	560	4.42 to 4.49	32 to 58.7	4.19 to 4.49	32 to 64	32 to 64	–	CC(C)c1cc(C(=O)N2CCCC(c3cc4ncccc4[nH]3)C2)on1 (stereo not drawn)	4.19 to 4.49	–	5.41 to 5.54	7.61 to 24.3	–	4.19	solubility kinetic (physchem [10]): > 67.3 µg/mL; Papp B→A (in vitro [11]): 33.2 ×10⁻⁶ cm/s; solubility kinetic (physchem [12]): 60.4 µg/mL (≈ 178 µM); Papp A→B (in vitro [13]): 29.4 ×10⁻⁶ cm/s; selectivity ratio (in vitro [14]): 8.25 to 22.1

Reference: ChEMBL document CHEMBL4342426, “Structure-activity relationship of 4-azaindole-2-piperidine derivatives as agents against Trypanosoma cruzi” (Bioorg Med Chem Lett, 2020)
